According to patent publication US20250179066A1, “ZWITTERIONIC ANTIBACTERIAL COMPOUNDS” (Hoffmann-La Roche Inc., priority 2022, published 2025):
Structures can show the parent of a compound that is named as a salt. Where two headings read alike, the source gives them in different places.

Tested on: Acinetobacter baumannii ATCC17961
Experiment: Antimicrobial susceptibility testing: 90% growth inhibitory concentration (IC90) determination
Assay type: cell-based
Conditions: 90% growth inhibitory concentration against Acinetobacter baumannii ATCC17961, Iso-Sensitest broth, OD 600 nm over 16 h, read-out: ATCC 17961 IC90
Procedure, shortened: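 Twofold serial dilutions (e.g. 10 to 0.0195 μM final) in Iso-Sensitest broth inoculated at ~5×10^5 CFU/mL, incubated at 35±2° C. OD600 read every minute for 16 h; IC90 is the concentration inhibiting 90% of growth during logarithmic phase.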

[1] = Acinetobacter baumannii, ATCC17961, 16 h

Row | Structure (SMILES) | IC90 [1] [µM] | IC90 [µM]
1 | Cn1c(-c2cn(-c3ccc4[nH]cnc4n3)nc2C(F)(F)F)cnc1C(=O)Nc1ccc(C(=O)N2CCN(C(=O)[C@H]3CC[N@+](CC(=O)O)(CC4CNC4)CC3)CC2)c(Cl)c1 [Example 55, cis-2-[1-(azetidin-3-ylmethyl)-4-[4-[2-chloro-4-[[5-[1-(1H-imidazo[4,5-b]pyridin-5-yl)-3-(trifluoromethyl)pyrazol-4-yl]-1-methyl-imidazole-2-carbonyl]amino]benzoyl]piperazine-1-carbonyl]piperidin-1-ium-1-yl]acetic acid. 1:1 2,2,2-trifluoroacetate] | 0.55 | 
2 | Cn1c(-c2cn(-c3cccc(N)n3)nc2C(F)(F)F)cnc1C(=O)Nc1ccc(C(=O)N2CCN(C(=O)C3CC[N+](CC(=O)O)(CC4CNC4)CC3)CC2)c(Cl)c1 (centres unmarked) [Example 56, 2-[4-[4-[4-[[5-[1-(6-amino-2-pyridyl)-3-(trifluoromethyl)pyrazol-4-yl]-1-methyl-imidazole-2-carbonyl]amino]-2-chloro-benzoyl]piperazine-1-carbonyl]-1-(azetidin-3-ylmethyl)piperidin-1-ium-1-yl]acetic acid. 1:1 2,2,2-trifluoroacetate] | 0.56 | 
3 | Cn1c(-c2cn(-c3ccc(NC[C@@H]4C[C@H](F)CN4)cn3)nc2C(F)(F)F)cnc1C(=O)Nc1ccc(C(=O)N2CCN(C(=O)C3CC[N+](CC(=O)O)(CC4CNC4)CC3)CC2)c(Cl)c1 (stereo partly drawn) [Example 57, 2-[1-(azetidin-3-ylmethyl)-4-[4-[2-chloro-4-[[5-[1-[5-[[(2S,4S)-4-fluoropyrrolidin-2-yl]methylamino]-2-pyridyl]-3-(trifluoromethyl)pyrazol-4-yl]-1-methyl-imidazole-2-carbonyl]amino]benzoyl]piperazine-1-carbonyl]piperidin-1-ium-1-yl]acetic acid. 1:1 2,2,2-trifluoroacetic acid. 1:1 2,2,2-trifluoroacetate] | 0.61 | 
4 | Cn1c(-c2cn(-c3ncc(N)cc3F)nc2C(F)(F)F)cnc1C(=O)Nc1ccc(C(=O)N2CCN(C(=O)[C@H]3CC[N@+](CC(=O)O)(CC4CNC4)CC3)CC2)c(Cl)c1 [Example 58, cis-2-[4-[4-[4-[[5-[1-(5-Amino-3-fluoro-2-pyridyl)-3-(trifluoromethyl)pyrazol-4-yl]-1-methyl-imidazole-2-carbonyl]amino]-2-chloro-benzoyl]piperazine-1-carbonyl]-1-(azetidin-3-ylmethyl)piperidin-1-ium-1-yl]acetic Acid.1:1 2,2,2-trifluoroacetate] | 0.63 | 
5 | Cn1c(-c2cn(-c3ccc(N)cn3)nc2C(F)(F)F)cnc1C(=O)Nc1ccc(C(=O)N2CCN(C(=O)C3CC[N+](CC(=O)O)(CC4CNC4)CC3)CC2)c(Cl)c1 (centres unmarked) [Example 59, 2-[4-[4-[4-[[5-[1-(5-amino-2-pyridyl)-3-(trifluoromethyl)pyrazol-4-yl]-1-methyl-imidazole-2-carbonyl]amino]-2-chloro-benzoyl]piperazine-1-carbonyl]-1-(azetidin-3-ylmethyl)piperidin-1-ium-1-yl]acetic acid. 1:1 formate] | 0.65 | 
6 | Cn1c(-c2cn(-c3ccc(N)cn3)nc2C(F)(F)F)cnc1C(=O)Nc1ccc(C(=O)N2CCN(C(=O)C3CC[N+](CCCC(=O)O)(CC4CNC4)CC3)CC2)c(Cl)c1 (centres unmarked) [Example 60, 4-[4-[4-[4-[[5-[1-(5-amino-2-pyridyl)-3-(trifluoromethyl)pyrazol-4-yl]-1-methyl-imidazole-2-carbonyl]amino]-2-chloro-benzoyl]piperazine-1-carbonyl]-1-(azetidin-3-ylmethyl)piperidin-1-ium-1-yl]butyric acid. 1:1 2,2,2-trifluoroacetate] | 0.66 | 
7 | Cn1c(-c2cn(-c3ccc4c(n3)CCN4)nc2C(F)(F)F)cnc1C(=O)Nc1ccc(C(=O)N2CCN(C(=O)C3CC[N+](CC(=O)O)(CC4CNC4)CC3)CC2)c(Cl)c1 (centres unmarked) [Example 61, 2-[1-(azetidin-3-ylmethyl)-4-[4-[2-chloro-4-[[5-[1-(2,3-dihydro-1H-pyrrolo[3,2-b]pyridin-5-yl)-3-(trifluoromethyl)pyrazol-4-yl]-1-methyl-imidazole-2-carbonyl]amino]benzoyl]piperazine-1-carbonyl]piperidin-1-ium-1-yl]acetic acid. 1:1 2,2,2-trifluoroacetate] | 0.67 | 
8 | Cn1c(-c2cn(-c3n[nH]c4ccccc34)nc2C(F)(F)F)cnc1C(=O)Nc1ccc(C(=O)N2CCN(C(=O)C3CC[N+](CC(=O)O)(CC4CNC4)CC3)CC2)c(Cl)c1 (centres unmarked) [Example 62, 2-[1-(azetidin-3-ylmethyl)-4-[4-[2-chloro-4-[[5-[1-(1H-indazol-3-yl)-3-(trifluoromethyl)pyrazol-4-yl]-1-methyl-imidazole-2-carbonyl]amino]benzoyl]piperazine-1-carbonyl]piperidin-1-ium-1-yl]acetic acid;formate] | 0.68 | 

The remaining lines, values ahead:

Row | IC90 [1] [µM] | IC90 [µM] | Structure (SMILES)
9 | 0.68 |  | Cn1c(-c2cn(-c3ccc4occc4n3)nc2C(F)(F)F)cnc1C(=O)Nc1ccc(C(=O)N2CCN(C(=O)C3CC[N+](CC(=O)O)(CC4CNC4)CC3)CC2)c(Cl)c1 (centres unmarked) [Example 63, 2-[1-(azetidin-3-ylmethyl)-4-[4-[2-chloro-4-[[5-[1-furo[3,2-b]pyridin-5-yl-3-(trifluoromethyl)pyrazol-4-yl]-1-methyl-imidazole-2-carbonyl]amino]benzoyl]piperazine-1-carbonyl]piperidin-1-ium-1-yl]acetic acid. 1:1 2,2,2-trifluoroacetate]
10 | 0.68 |  | Cn1c(-c2cn(-c3ccc(N)cn3)nc2C(F)(F)F)cnc1C(=O)Nc1ccc(C(=O)N2CCN(C(=O)[C@H]3CC[N@@+](CC(=O)O)(CC4CNC4)CC3)CC2)c(Cl)c1 [Example 64, trans-2-[4-[4-[4-[[5-[1-(5-amino-2-pyridyl)-3-(trifluoromethyl)pyrazol-4-yl]-1-methyl-imidazole-2-carbonyl]amino]-2-chloro-benzoyl]piperazine-1-carbonyl]-1-(azetidin-3-ylmethyl)piperidin-1-ium-1-yl]acetic acid. 1:1 2,2,2-trifluoroacetic acid. 1:1 2,2,2-trifluoroacetate]
11 |  | 0.72 | Cn1c(-c2cn(-c3ccc(N)cn3)nc2C(F)(F)F)cnc1C(=O)Nc1ccc(C(=O)N2CCN(C(=O)CCC[N+](CCCN)(CCCN)CC(=O)O)CC2)c(Cl)c1 [Example 66, bis(3-aminopropyl)-[4-[4-[4-[[5-[1-(5-amino-2-pyridyl)-3-(trifluoromethyl)pyrazol-4-yl]-1-methyl-imidazole-2-carbonyl]amino]-2-chloro-benzoyl]piperazino]-4-keto-butyl]-(carboxymethyl)ammonium. 1:1 2,2,2-trifluoroacetate]
12 | 0.72 |  | Cn1c(-c2cn(-c3ccc(N)c(N)n3)nc2C(F)(F)F)cnc1C(=O)Nc1ccc(C(=O)N2CCN(C(=O)C3CC[N+](CC(=O)O)(CC4CNC4)CC3)CC2)c(Cl)c1 (centres unmarked) [Example 67, 2-[1-(azetidin-3-ylmethyl)-4-[4-[2-chloro-4-[[5-[1-(5,6-diamino-2-pyridyl)-3-(trifluoromethyl)pyrazol-4-yl]-1-methyl-imidazole-2-carbonyl]amino]benzoyl]piperazine-1-carbonyl]piperidin-1-ium-1-yl]acetic acid. 1:1 2,2,2-trifluoroacetate]
13 | 0.76 |  | CNc1ccc(-n2cc(-c3cnc(C(=O)Nc4ccc(C(=O)N5CCN(C(=O)C6CC[N+](CC(=O)O)(CC7CNC7)CC6)CC5)c(Cl)c4)n3C)c(C(F)(F)F)n2)cn1 (centres unmarked) [Example 68, 2-[1-(azetidin-3-ylmethyl)-4-[4-[2-chloro-4-[[1-methyl-5-[1-[6-(methylamino)-3-pyridyl]-3-(trifluoromethyl)pyrazol-4-yl]imidazole-2-carbonyl]amino]benzoyl]piperazine-1-carbonyl]piperidin-1-ium-1-yl]acetic acid. 1:1 2,2,2-trifluoroacetate]
14 | 0.79 |  | Cn1c(-c2cn(-c3ccc(NC4CCC4)cn3)nc2C(F)(F)F)cnc1C(=O)Nc1ccc(C(=O)N2CCN(C(=O)C3CC[N+](CC(=O)O)(CC4CNC4)CC3)CC2)c(Cl)c1 (centres unmarked) [Example 69, 2-[1-(azetidin-3-ylmethyl)-4-[4-[2-chloro-4-[[5-[1-[5-(cyclobutylamino)-2-pyridyl]-3-(trifluoromethyl)pyrazol-4-yl]-1-methyl-imidazole-2-carbonyl]amino]benzoyl]piperazine-1-carbonyl]piperidin-1-ium-1-yl]acetic acid. 1:1 formate]
15 | 0.85 |  | Cn1c(-c2cn(-c3ccc(N)cn3)nc2C(F)(F)F)cnc1C(=O)Nc1ccc(C(=O)N2CCN(C(=O)NCCCc3cc[n+](CC(=O)O)c(CCCN)c3)CC2)c(Cl)c1 [Example 70, 2-[2-(3-Aminopropyl)-4-[3-[[4-[4-[[5-[1-(5-amino-2-pyridyl)-3-(trifluoromethyl)pyrazol-4-yl]-1-methyl-imidazole-2-carbonyl]amino]-2-chloro-benzoyl]piperazine-1-carbonyl]amino]propyl]pyridin-1-ium-1-yl]acetic Acid.1:1 2,2,2-trifluoroacetic Acid.1:1 2,2,2-trifluoroacetate]
16 | 0.86 |  | Cn1c(-c2cn(-c3cc(N)ccn3)nc2C(F)(F)F)cnc1C(=O)Nc1ccc(C(=O)N2CCN(C(=O)C3CC[N+](CC(=O)O)(CC4CNC4)CC3)CC2)c(Cl)c1 (centres unmarked) [Example 71, 2-[4-[4-[4-[[5-[1-(4-amino-2-pyridyl)-3-(trifluoromethyl)pyrazol-4-yl]-1-methyl-imidazole-2-carbonyl]amino]-2-chloro-benzoyl]piperazine-1-carbonyl]-1-(azetidin-3-ylmethyl)piperidin-1-ium-1-yl]acetic acid. 1:1 2,2,2-trifluoroacetate]
17 | 0.87 |  | Cn1c(-c2cn(-c3ccc(N)cn3)nc2C(F)(F)F)cnc1C(=O)Nc1ccc(C(=O)N2CCN(C(=O)CCCN(CCCN)CC(=O)O)CC2)c(Cl)c1 [Example 72, 2-[3-aminopropyl-[4-[4-[4-[[5-[1-(5-amino-2-pyridyl)-3-(trifluoromethyl)pyrazol-4-yl]-1-methyl-imidazole-2-carbonyl]amino]-2-chloro-benzoyl]piperazino]-4-keto-butyl]amino]acetic acid. 1:1 2,2,2-trifluoroacetic acid]
